Laboratory results published in ChEMBL document CHEMBL4028802, “DILIrank: the largest reference drug list ranked by the risk for developing drug-induced liver injury in humans” (Drug Discov Today, 2016).

Experiments:
Homo sapiens [1] = species: Homo sapiens; assay: Liver toxicity in human assessed as induction of drug-induced liver injury by measuring severity class index
Homo sapiens [2] = species: Homo sapiens; assay: Liver toxicity in human assessed as induction of drug-induced liver injury by measuring verified drug-induced liver injury concern status
Throughout, for DILI severity class: key of the grades not given here.

| Compound | DILI_severity_class (Homo sapiens [1]) | DILI_Concern (Homo sapiens [2]) |
| --- | --- | --- |
| CN(N=O)C(=O)N[C@@H](C=O)[C@@H](O)[C@H](O)[C@H](O)CO [STREPTOZOCIN] | 3 | Ambiguous-Dili-Concern |
| Cc1nccn1CC1CCc2c(c3ccccc3n2C)C1=O (stereo not given) [ONDANSETRON] | 7 | Less-Dili-Concern |
| CCN1C(=O)NC(c2ccccc2)C1=O (stereo not given) [ETHOTOIN] | 3 | Ambiguous-Dili-Concern |
| O=C(O)c1cc(/N=N/c2ccc(O)c(C(=O)O)c2)ccc1O [OLSALAZINE] | 8 | Less-Dili-Concern |
| CCCCCc1cc(O)c2c(c1)OC(C)(C)[C@@H]1CCC(C)=C[C@@H]21 [DRONABINOL] | 3 | Ambiguous-Dili-Concern |
| CCCc1nc(C(C)(C)O)c(C(=O)OCc2oc(=O)oc2C)n1Cc1ccc(-c2ccccc2-c2nnn[nH]2)cc1 [OLMESARTAN MEDOXOMIL] | 4 | Ambiguous-Dili-Concern |
| NNc1nncc2ccccc12 [HYDRALAZINE] | 3 | Less-Dili-Concern |
| Nc1ccc(O)c(C(=O)O)c1 [MESALAMINE] | 7 | Less-Dili-Concern |
| CC[C@H](C)[C@H](NC(=O)[C@H](CCC(=O)O)NC(=O)[C@H](CO)NC(=O)[C@@H](NC(=O)[C@@H](N)CO)C(C)C)C(=O)N[C@@H](CCC(N)=O)C(=O)N[C@@H](CC(C)C)C(=O)N[C@@H](CCSC)C(=O)N[C@@H](Cc1cnc[nH]1)C(=O)N[C@@H](CC(N)=O)C(=O)N[C@@H](CC(C)C)C(=O)NCC(=O)N[C@@H](CCCCN)C(=O)N[C@@H](Cc1cnc[nH]1)C(=O)N[C@@H](CC(C)C)C(=O)N[C@@H](CC(N)=O)C(=O)N[C@@H](CO)C(=O)N[C@@H](CCSC)C(=O)N[C@@H](CCC(=O)O)C(=O)N[C@@H](CCCN=C(N)N)C(=O)N[C@H](C(=O)N[C@@H](CCC(=O)O)C(=O)N[C@@H](Cc1c[nH]c2ccccc12)C(=O)N[C@@H](CC(C)C)C(=O)N[C@@H](CCCN=C(N)N)C(=O)N[C@@H](CCCCN)C(=O)N[C@@H](CCCCN)C(=O)N[C@@H](CC(C)C)C(=O)N[C@@H](CCC(N)=O)C(=O)N[C@@H](CC(=O)O)C(=O)N[C@H](C(=O)N[C@@H](Cc1cnc[nH]1)C(=O)N[C@@H](CC(N)=O)C(=O)N[C@@H](Cc1ccccc1)C(=O)O)C(C)C)C(C)C [TERIPARATIDE] | 0 | No-Dili-Concern |
| CC(C)(C)NC[C@H](O)COc1ccccc1C1CCCC1 [PENBUTOLOL] | 0 | No-Dili-Concern |
| Cc1nc2c([nH]1)-c1ccccc1N(C(=O)c1ccc(NC(=O)c3ccccc3-c3ccccc3)cc1)CC2 [CONIVAPTAN] | 0 | No-Dili-Concern |
| C/C(=N\O)C(C)NCC(C)(C)CNC(C)/C(C)=N/O (stereo not given) [EXAMETAZIME] | 0 | No-Dili-Concern |
| Fc1ccc([C@@H]2CCNC[C@H]2COc2ccc3c(c2)OCO3)cc1 [PAROXETINE] | 8 | Less-Dili-Concern |
| CCCCCCC(C)(C)c1cc(O)c2c(c1)OC(C)(C)C1CCC(=O)CC21 (stereo not given) [NABILONE] | 0 | No-Dili-Concern |
| C[C@@H](NCCCc1cccc(C(F)(F)F)c1)c1cccc2ccccc12 | 0 | No-Dili-Concern |
| CC[C@H]1OC(=O)[C@H](C)C(=O)[C@H](C)[C@@H](O[C@@H]2O[C@H](C)C[C@H](N(C)C)[C@H]2O)[C@](C)(OC)C[C@@H](C)C(=O)[C@H](C)[C@H]2N(CCCCn3cnc(-c4cccnc4)c3)C(=O)O[C@]12C [TELITHROMYCIN] | 8 | Most-Dili-Concern |
| COc1cccc2c1C(=O)c1c(O)c3c(c(O)c1C2=O)C[C@@](O)(C(=O)CO)C[C@@H]3O[C@H]1C[C@H](N)[C@H](O)[C@H](C)O1 [DOXORUBICIN] | 3 | Less-Dili-Concern |
| CO[C@H]1/C=C/O[C@@]2(C)Oc3c(C)c(O)c4c(O)c(c(/C=N/N5CCN(C6CCCC6)CC5)c(O)c4c3C2=O)NC(=O)/C(C)=C\C=C\[C@H](C)[C@H](O)[C@@H](C)[C@@H](O)[C@@H](C)[C@H](OC(C)=O)[C@@H]1C [RIFAPENTINE] | 4 | Ambiguous-Dili-Concern |
| O=P1(NCCCl)OCCCN1CCCl (stereo not given) [IFOSFAMIDE] | 4 | Less-Dili-Concern |
| CSCC[C@H](NC(=O)[C@H](Cc1ccc(OS(=O)(=O)O)cc1)NC(=O)[C@@H](N)CC(=O)O)C(=O)NCC(=O)N[C@@H](Cc1c[nH]c2ccccc12)C(=O)N[C@@H](CCSC)C(=O)N[C@@H](CC(=O)O)C(=O)N[C@@H](Cc1ccccc1)C(N)=O [SINCALIDE] | 0 | No-Dili-Concern |
| CN(C)CCC=C1c2ccccc2C=Cc2ccccc21 [CYCLOBENZAPRINE] | 5 | Less-Dili-Concern |
| O=C(c1cc(O)c(O)c(O)c1)c1ccc(O)c(O)c1O [EXIFONE] | 8 | Most-Dili-Concern |
| CCOC(=O)[C@H](CCc1ccccc1)N[C@@H](C)C(=O)N1[C@H](C(=O)O)C[C@H]2CCCC[C@@H]21 [TRANDOLAPRIL] | 4 | Less-Dili-Concern |
| Nc1nc2ncc(CNc3ccc(C(=O)N[C@@H](CCC(=O)O)C(=O)O)cc3)nc2c(=O)[nH]1 [FOLIC ACID] | 0 | No-Dili-Concern |
| CCCCCCCCCC(=O)OC1(c2ccc(Cl)cc2)CCN(CCCC(=O)c2ccc(F)cc2)CC1 [HALOPERIDOL DECANOATE] | 3 | Ambiguous-Dili-Concern |

| Compound | DILI_severity_class (Homo sapiens [1]) | DILI_Concern (Homo sapiens [2]) |
| --- | --- | --- |
| OC[C@H]1O[C@@H](n2cnc3c2NC=NC[C@H]3O)C[C@@H]1O [PENTOSTATIN] | 3 | Most-Dili-Concern |
| CN(C)CCC(c1ccc(Br)cc1)c1ccccn1 (stereo not given) [BROMPHENIRAMINE] | 0 | No-Dili-Concern |
| CN1C(=O)C(O)N=C(c2ccccc2)c2cc(Cl)ccc21 (stereo not given) [TEMAZEPAM] | 3 | Ambiguous-Dili-Concern |
| CC(CCc1ccc(O)cc1)NCCc1ccc(O)c(O)c1 (stereo not given) [DOBUTAMINE] | 0 | No-Dili-Concern |
| CC[C@H](C)C(=O)O[C@H]1C[C@H](O)C=C2C=C[C@H](C)[C@H](CC[C@@H](O)C[C@@H](O)CC(=O)O)[C@H]21 [PRAVASTATIN] | 3 | Less-Dili-Concern |
| CC(C)=CCN1CC[C@]2(C)c3cc(O)ccc3C[C@H]1[C@H]2C [(+)-PENTAZOCINE] | 0 | No-Dili-Concern |
| CCN(CC)C(C)C(=O)c1ccccc1 (stereo not given) [DIETHYLPROPION] | 0 | No-Dili-Concern |
| CC1=C(C/C=C(\C)CCC[C@H](C)CCC[C@H](C)CCCC(C)C)C(=O)c2ccccc2C1=O [PHYTONADIONE] | 0 | No-Dili-Concern |
| CCCC(C)(COC(N)=O)COC(=O)NC(C)C (stereo not given) [CARISOPRODOL] | 0 | No-Dili-Concern |
| CCOC(=O)C1=C(COCCN)NC(C)=C(C(=O)OC)C1c1ccccc1Cl (stereo not given) [AMLODIPINE] | 5 | Less-Dili-Concern |
| CC(C)C(=O)Nc1ccc([N+](=O)[O-])c(C(F)(F)F)c1 [FLUTAMIDE] | 8 | Most-Dili-Concern |
| CN1C[C@H](C(=O)N[C@]2(C)O[C@@]3(O)[C@@H]4CCCN4C(=O)[C@H](Cc4ccccc4)N3C2=O)C[C@@H]2c3cccc4[nH]cc(c34)C[C@H]21 [DIHYDROERGOTAMINE] | 0 | No-Dili-Concern |
| C1CCC(C(CC2CCCCN2)C2CCCCC2)CC1 (stereo not given) [PERHEXILINE] | 8 | Most-Dili-Concern |
| OC(Cn1cncn1)(Cn1cncn1)c1ccc(F)cc1F [FLUCONAZOLE] | 8 | Most-Dili-Concern |
| C/C(=C\c1csc(C)n1)[C@@H]1C[C@@H]2O[C@]2(C)CCC[C@H](C)[C@H](O)[C@@H](C)C(=O)C(C)(C)[C@@H](O)CC(=O)N1 [IXABEPILONE] | 7 | Ambiguous-Dili-Concern |
| [82Rb+].[Cl-] [RUBIDIUM CHLORIDE RB 82] | 0 | No-Dili-Concern |
| COc1cccc2c1C(=O)c1c(O)c3c(c(O)c1C2=O)C[C@@](O)(C(=O)CO)C[C@@H]3O[C@H]1C[C@H](N)[C@@H](O)[C@H](C)O1 [EPIRUBICIN] | 3 | Ambiguous-Dili-Concern |
| NCCCC(O)(P(=O)(O)O)P(=O)(O)O [ALENDRONIC ACID] | 0 | Less-Dili-Concern |
| CCN1CCN(C(=O)N[C@@H](C(=O)N[C@@H]2C(=O)N3[C@@H]2SC(C)(C)[C@@H]3C(=O)O)c2ccccc2)C(=O)C1=O [PIPERACILLIN] | 3 | Ambiguous-Dili-Concern |
| C[C@@H]1[C@H](O)[C@@H](C)/C=C/C=C/C=C/C=C/C=C/C=C/C=C/[C@H](O[C@@H]2O[C@H](C)[C@@H](O)[C@H](N)[C@@H]2O)C[C@@H]2O[C@](O)(C[C@@H](O)C[C@@H](O)[C@H](O)CC[C@@H](O)C[C@@H](O)CC(=O)O[C@H]1C)C[C@H](O)[C@H]2C(=O)O [AMPHOTERICIN B] | 3 | Less-Dili-Concern |
| CO[C@@]1(NC(=O)C2SC(=C(C(N)=O)C(=O)O)S2)C(=O)N2C(C(=O)O)=C(CSc3nnnn3C)CS[C@@H]21 (stereo not given in full) [CEFOTETAN] | 3 | Ambiguous-Dili-Concern |
| Cc1onc(-c2ccccc2)c1-c1ccc(S(N)(=O)=O)cc1 [VALDECOXIB] | 3 | Less-Dili-Concern |
| COc1ccc2c(c1)c(CC(=O)O)c(C)n2C(=O)c1ccc(Cl)cc1 [INDOMETHACIN] | 8 | Most-Dili-Concern |
| BIVALIRUDIN | 0 | No-Dili-Concern |
| NS(=O)(=O)c1cc2c(cc1Cl)NCNS2(=O)=O [HYDROCHLOROTHIAZIDE] | 2 | Less-Dili-Concern |
